Laboratory results published in paper PMC9898036, “VIP152 is a selective CDK9 inhibitor with pre-clinical in vitro and in vivo efficacy in chronic lymphocytic leukemia” (Leukemia, 2022).
Changes are numbered by the printed parent chain. Like-named read-outs stand apart in the source and are kept apart here.

Columns and labels:
[1] = target: CASK (Homo sapiens, UniProt O14936); experiment: KINOMEscan: CASK; assay type: binding; conditions: 1000 nM, read-out: Percent Control
[2] = tested on: Imidazoline I2, Central; experiment: Eurofins Diversity Panel; assay type: binding; conditions: rat
[3] = target: T1, ABL1 (Homo sapiens, UniProt P00519, Q252H); experiment: KINOMEscan: ABL1; assay type: binding; conditions: read-out: Percent Control; for remaining binding at 0.1 µM: 100 nM; for remaining binding at 1 µM: 1000 nM
T1 sequence (P00519 229-512 Q252H): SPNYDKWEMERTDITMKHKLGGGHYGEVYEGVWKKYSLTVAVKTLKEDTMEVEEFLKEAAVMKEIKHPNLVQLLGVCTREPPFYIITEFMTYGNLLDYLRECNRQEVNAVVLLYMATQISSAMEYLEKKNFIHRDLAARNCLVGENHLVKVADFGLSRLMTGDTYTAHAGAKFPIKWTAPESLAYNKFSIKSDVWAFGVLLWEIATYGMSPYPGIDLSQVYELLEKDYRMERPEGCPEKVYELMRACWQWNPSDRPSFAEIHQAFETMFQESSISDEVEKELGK
Method: (§1) The structure and synthesis of VIP152 were recently described by Lücking et al.. (Fig. 1A); however, the selectivity of the molecule in cellular systems has yet to be explored. […] We also performed this experiment at 1000 nM, where CDK9 was inhibited at 99%. […] We found a strong concordance between our data and those of Lücking when comparing the most inhibited kinases. Potential off-target effects of VIP152 were next tested in vitro at a concentration of 10 µM for off-target activity against a broad range of receptors, transporters, ion channels, and enzymes (n = 138) using the Eurofins Diversity Panel.
(§2) Kinomescan Kinase Profiling Assay
(§3) Kinomescan Assay was performed at DiscoverRX and described in Fabian, et al. 2005, Nat.
(§4) Biotechnol. In brief, kinases were produced and subsequently tagged with DNA for qPCR detection.
(§5) Streptavidin-coated magnetic beads were bound to biotinylated kinase ligands to serve as a solid support.
(§6) VIP152 was dissolved in DMSO and tested across a 10 serial threefold dilution set and compared to a test compound and a DMSO control. Kinases which were inhibited by VIP152 would not be bound to the solid-support resulting in decreased substrate for the qPCR reaction. Kinome map was produced via TreeSpot Analysis from DiscoverRX. […]

[4] = target: ABL1 (Homo sapiens, UniProt P00519, M351T); experiment: KINOMEscan: ABL1; assay type: binding; conditions: ABL1(M351T)-phosphorylated, read-out: Percent Control
Method: as §1, §2, §3, §4, §5, §6

[5] = target: T2, ABL1 (Homo sapiens, UniProt P00519, F317I); experiment: KINOMEscan: ABL1; assay type: binding; conditions: read-out: Percent Control; for remaining binding at 0.1 µM: 100 nM; for remaining binding at 1 µM: 1000 nM
T2 sequence (P00519 229-512 F317I): T1 sequence (P00519 229-512 Q252H) with H24Q, F89I
Method: as §1, §2, §3, §4, §5, §6

[6] = target: T3, ABL1 (Homo sapiens, UniProt P00519, T315I); experiment: KINOMEscan: ABL1; assay type: binding; conditions: read-out: Percent Control; for remaining binding at 0.1 µM: 100 nM; for remaining binding at 1 µM: 1000 nM
T3 sequence (P00519 229-512 T315I): T1 sequence (P00519 229-512 Q252H) with H24Q, T87I
Method: as §1, §2, §3, §4, §5, §6

[7] = target: T4, ABL1 (Homo sapiens, UniProt P00519, F317L); experiment: KINOMEscan: ABL1; assay type: binding; conditions: read-out: Percent Control; for remaining binding at 0.1 µM: 100 nM; for remaining binding at 1 µM: 1000 nM
T4 sequence (P00519 229-512 F317L): T1 sequence (P00519 229-512 Q252H) with H24Q, F89L
Method: as §1, §2, §3, §4, §5, §6

[8] = target: T5, ABL1 (Homo sapiens, UniProt P00519, H396P); experiment: KINOMEscan: ABL1; assay type: binding; conditions: read-out: Percent Control; for remaining binding at 0.1 µM: 100 nM; for remaining binding at 1 µM: 1000 nM
T5 sequence (P00519 229-512 H396P): T1 sequence (P00519 229-512 Q252H) with H24Q, H168P
Method: as §1, §2, §3, §4, §5, §6

[9] = target: ABL1 (Homo sapiens, UniProt P00519, E255K); experiment: KINOMEscan: ABL1; assay type: binding; conditions: ABL1(E255K)-phosphorylated, read-out: Percent Control
Method: as §1, §2, §3, §4, §5, §6

[10] = tested on: ABL1; experiment: KINOMEscan: ABL1; assay type: binding, human; conditions: 1000 nM
Method: as §1, §2, §3, §4, §5, §6

CASK, sequence (O14936 whole entry): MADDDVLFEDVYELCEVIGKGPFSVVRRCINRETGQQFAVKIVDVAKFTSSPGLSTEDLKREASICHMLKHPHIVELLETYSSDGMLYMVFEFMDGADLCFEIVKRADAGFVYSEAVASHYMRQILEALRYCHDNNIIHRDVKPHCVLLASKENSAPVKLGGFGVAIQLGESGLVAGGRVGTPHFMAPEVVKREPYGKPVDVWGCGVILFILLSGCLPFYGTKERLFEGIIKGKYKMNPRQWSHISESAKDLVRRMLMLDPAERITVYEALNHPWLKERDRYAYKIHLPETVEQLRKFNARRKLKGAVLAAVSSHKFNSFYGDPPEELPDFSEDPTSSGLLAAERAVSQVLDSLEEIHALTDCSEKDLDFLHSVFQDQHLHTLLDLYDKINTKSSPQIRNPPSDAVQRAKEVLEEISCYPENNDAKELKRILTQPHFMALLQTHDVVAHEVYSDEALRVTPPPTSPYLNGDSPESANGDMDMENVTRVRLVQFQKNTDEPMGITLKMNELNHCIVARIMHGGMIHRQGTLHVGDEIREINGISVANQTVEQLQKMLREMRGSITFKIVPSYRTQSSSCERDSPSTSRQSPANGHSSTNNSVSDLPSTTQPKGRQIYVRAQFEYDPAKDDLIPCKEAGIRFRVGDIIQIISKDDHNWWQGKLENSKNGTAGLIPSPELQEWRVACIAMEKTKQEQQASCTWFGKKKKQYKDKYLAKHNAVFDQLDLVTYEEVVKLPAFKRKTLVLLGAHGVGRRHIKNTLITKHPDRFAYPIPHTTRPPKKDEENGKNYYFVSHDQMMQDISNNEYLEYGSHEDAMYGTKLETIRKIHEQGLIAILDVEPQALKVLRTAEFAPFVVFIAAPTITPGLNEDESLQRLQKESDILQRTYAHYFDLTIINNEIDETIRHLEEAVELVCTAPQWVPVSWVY

COc1cc(F)ccc1-c1cc(Nc2cc(CS(C)(=N)=O)ccn2)ncc1F (centres unmarked) [VIP152]
remaining binding at 1 µM [1]: 95%
IC50 [2]: 1400 nM
Ki [2]: 930 nM
% Inh. ([2]; Conc. 10 μM): 82%
remaining binding at 0.1 µM ([3]; ABL1(Q252H)-nonphosphorylated): 72%
remaining binding at 1 µM ([3]; ABL1(Q252H)-nonphosphorylated): 25%
remaining binding at 0.1 µM ([3]; ABL1(Q252H)-phosphorylated): 100%
remaining binding at 1 µM ([3]; ABL1(Q252H)-phosphorylated): 46%
remaining binding at 0.1 µM ([4]; 100 nM): 86%
remaining binding at 1 µM ([4]; 1000 nM): 43%
remaining binding at 0.1 µM ([5]; ABL1(F317I)-nonphosphorylated): 100%
remaining binding at 1 µM ([5]; ABL1(F317I)-nonphosphorylated): 84%
remaining binding at 0.1 µM ([5]; ABL1(F317I)-phosphorylated): 95%
remaining binding at 1 µM ([5]; ABL1(F317I)-phosphorylated): 33%
remaining binding at 0.1 µM ([6]; ABL1(T315I)-nonphosphorylated): 96%
remaining binding at 1 µM ([6]; ABL1(T315I)-nonphosphorylated): 3.2%
remaining binding at 0.1 µM ([6]; ABL1(T315I)-phosphorylated): 95%
remaining binding at 1 µM ([6]; ABL1(T315I)-phosphorylated): 53%
remaining binding at 0.1 µM ([7]; ABL1(F317L)-nonphosphorylated): 100%
remaining binding at 1 µM ([7]; ABL1(F317L)-nonphosphorylated): 52%
remaining binding at 0.1 µM ([7]; ABL1(F317L)-phosphorylated): 95%
remaining binding at 1 µM ([7]; ABL1(F317L)-phosphorylated): 56%
remaining binding at 0.1 µM ([8]; ABL1(H396P)-nonphosphorylated): 70%
remaining binding at 1 µM ([8]; ABL1(H396P)-nonphosphorylated): 7.6%
remaining binding at 0.1 µM ([8]; ABL1(H396P)-phosphorylated): 100%
remaining binding at 1 µM ([8]; ABL1(H396P)-phosphorylated): 52%
remaining binding at 0.1 µM ([9]; 100 nM): 83%
remaining binding at 1 µM ([9]; 1000 nM): 48%
inhibition of ABL1 [10]: 96.8%
